Assay results from US11932611B1, “3-(5-(3-fluorophenyl)-4-phenyl-4H-1,2,4-triazol-3-ylthio)propanoic acid as an antimicrobial compound” (KING FAISAL UNIVERSITY, priority 2023, dated 2024).

Key:
Assay type in all cases: cell-based
Bacillus cereus = assay: Agar plate disc-diffusion method, antibacterial inhibition zone; conditions: nutrient agar, 37° C., 48 h
Protocol: (§1) The agar plate disc-diffusion method was applied. […] The discs were then placed onto the surface of agar plates (nutrient agar for bacteria and Sabouraud's dextrose agar for fungi) seeded with the test organism. Each plate contained 15 mL of the agar medium, previously seeded with 0.2 mL of the broth culture of each organism pregrown for 18 h. The plates were incubated at 37° C. for 48 h, and 72 h for fungi. The inhibition zones was measured in mm. Discs impregnated with DMSO were used as a control, and its inhibition zone was subtracted from the tested compound actual inhibition zone.

Escherichia coli = assay: as above; conditions: nutrient agar, 37° C., 48 h
Protocol: as §1

Pseudomonas aeruginosa = assay: as above; conditions: nutrient agar, 37° C., 48 h
Protocol: as §1

Staphylococcus aureus = assay: as above; conditions: nutrient agar, 37° C., 48 h
Protocol: as §1

Aspergillus flavus = assay: Agar plate disc-diffusion method, antifungal inhibition zone; conditions: Sabouraud's dextrose agar, 72 h
Protocol: as §1

[1] = tested on: Chrysosporium keratinophilum; assay: as above; conditions: Sabouraud's dextrose agar, 72 h
Protocol: as §1

[2] = A = concentration of comp. = 10,000 μL
[3] = B = concentration of comp. = 30,000 μL
[4] = C = concentration of comp. = 50,000 μL

With `O=C(O)CCSc1nnc(-c2cccc(F)c2)n1-c1ccccc1` [III, 3-(5-(3-fluorophenyl)-4-phenyl-4H-1,2,4-triazol-3-ylthio)propanoic acid] as the molecule, how does the “inhibition zone, Bacillus Cereus, A” value (Bacillus cereus; [2]) read?
The value was 24 mm.

What about the “inhibition zone, Bacillus Cereus, B” value (Bacillus cereus; [3]) of the same molecule?
The value was 27 mm.

What about the “inhibition zone, Bacillus Cereus, C” value (Bacillus cereus; [4]) of the same molecule?
Its value is 38 mm.

And the “inhibition zone, Escherichia coli, A” value (Escherichia coli; [2])?
Its value is 25 mm.

What about the “inhibition zone, Escherichia coli, B” value (Escherichia coli; [3]) of the same molecule?
The value was 31 mm.

And the “inhibition zone, Escherichia coli, C” value (Escherichia coli; [4])?
The value was 45 mm.

And the “inhibition zone, Pseudomonas aeruginosa, A” value (Pseudomonas aeruginosa; [2])?
The value was 22 mm.

And the “inhibition zone, Pseudomonas aeruginosa, B” value (Pseudomonas aeruginosa; [3])?
The value was 24 mm.

And the “inhibition zone, Pseudomonas aeruginosa, C” value (Pseudomonas aeruginosa; [4])?
The value was 41 mm.

And the “inhibition zone, Staphylococcus aureus, A” value (Staphylococcus aureus; [2])?
Its value is 27 mm.

What about the “inhibition zone, Staphylococcus aureus, B” value (Staphylococcus aureus; [3]) of the same molecule?
The value was 34 mm.

What about the “inhibition zone, Staphylococcus aureus, C” value (Staphylococcus aureus; [4]) of the same molecule?
The value was 45 mm.

What about the “inhibition zone, Aspergillus flavus, A” value (Aspergillus flavus; [2]) of the same molecule?
Its value is 19 mm.

And the “inhibition zone, Aspergillus flavus, B” value (Aspergillus flavus; [3])?
Its value is 25 mm.

What about the “inhibition zone, Aspergillus flavus, C” value (Aspergillus flavus; [4]) of the same molecule?
The value was 36 mm.

What about the “inhibition zone, Chrysosporium keratinophilum, A” value [1, 2] of the same molecule?
The value was 23 mm.

What about the “inhibition zone, Chrysosporium keratinophilum, B” value [1, 3] of the same molecule?
The value was 26 mm.

And the “inhibition zone, Chrysosporium keratinophilum, C” value [1, 4]?
Its value is 43 mm.
